Here are results for nine molecules from patent US7846903B2, “Type II cubic liquid crystal composition” (National Institute of Advanced Industrial Science and …, priority 2004, dated 2010).

For data set [1] the following is noted: literature; cited from earlier work.
Data set [2] is described as follows: Krafft temperature (TK) by DSC of amphiphilic compound/water system. It is filed as physicochemical. The note with it: for TK (Krafft temperature): compound/water system; for Krafft temperature (° C.): amphiphilic compound alone. On the procedure:
Liquid crystals such as cubic liquid crystals formed by amphiphilic lipids are formed only at the Krafft temperature (TK), as determined depending on types and concentrations of amphiphilic lipids, or higher. Furthermore, liquid crystals generally undergo a phase transition upon changes in the concentration of the amphiphilic lipid or temperature. Accordingly, the maximal temperature (Tmax) at which a given liquid crystal structure can be stably present is also determined depending on lipid type and concentration of amphiphilic lipid. Thus, a liquid crystal structure formed by a given type of amphiphilic lipid is stably formed in the temperature range between TK and Tmax. The correlation between TK-Tmax and the concentration of the amphiphilic lipid is generally indicated as a “concentration-temperature dependent phase diagram” of the amphiphilic lipid/water system. The Krafft temperature of the amphiphilic lipid can be determined by a method known in the art, such as a method involving the preparation of such a phase diagram (e.g., Laughlin, R. G., “The Aqueous Phase Behavior of Surfactants,” 1994, Academic Press London, pp. 106-117). The Krafft temperature of a mixture of two or more amphiphilic lipids can be determined by the same method.
In the cubic liquid crystal composition of the present invention, stable bicontinuous type II cubic liquid crystals are formed at low temperatures, such as lower than 6° C. In the liquid crystal composition of the present invention, stable bicontinuous type II cubic liquid crystals are typically formed between −10° C. (or at the freezing temperature of the aqueous medium used or higher) and 80° C., and preferably between 0° C. and 50° C. The Krafft temperature of the amphiphilic lipid can be easily determined by, for example, DSC assay of an aqueous solution containing 1% to 85% by mass of amphiphilic lipid or by observing the melting behavior of the amphiphilic lipid under a (polarizing) microscope. More precisely, such temperature may be determined in accordance with a conventional technique involving the preparation of a phase diagram (e.g., Laughlin, R. G., “The Aqueous Phase Behavior of Surfactants,” 1994, Academic Press, London, pp. 106-117).
The Krafft temperatures of these amphiphilic compounds and mixtures thereof determined by the analyses described below are shown in Table 2-1 and Table 2-2.
Subsequently, the sample of mono-O-(phytanyl)pentaerythritol/water system was subjected to differential scanning calorimetry (DSC) in a temperature range between −45° C. and 70° C. DSC analysis employed the Seiko SSC/560U differential scanning calorimeter (Seiko Instruments Inc.). The sample of mono-O-(phytanyl)pentaerythritol/water system (72.4% by mass) prepared by the above method was sealed in a DSC cell, and the sample was incubated while cooling at −45° C. for 3 hours to thoroughly form a hydrated solid of mono-O-(phytanyl)pentaerythritol (hereafter abbreviated as “hydrated solid”). Subsequently, this hydrated solid was heated at a rate of temperature increase of 0.5° C./minute and a melting behavior of the hydrated solid was inspected by DSC analysis. As a result, an endothermic peak resulting from melting of the hydrated solid that begins at around −40° C. and ends at around −27° C. and an endothermic peak resulting from ice melting observed between −10° C. and 1° C. were observed, as shown in FIG. 4. In FIG. 4, the left peak is the endothermic peak resulting from melting of the hydrated solid and the right peak is the endothermic peak resulting from ice melting. Although analysis was conducted up to 70° C., other thermal transition was not observed. Substantially the same results were obtained at other concentrations. Thus, the TK of mono-O-(phytanyl)pentaerythritol was concluded to be 0° C. or lower.

Data set [3] is described as follows: Formation and structure of cubic liquid crystals by polarizing microscopy (penetration method) and SAXS. It counts as physicochemical. The note with it: for lattice constant: 58.9% by mass. The text has this:
Whether or not the amphiphilic lipid/water system forms cubic liquid crystals and whether or not such composition is type I or II can be easily determined by the penetration method. A small amount (several mg) of amphiphilic lipids is placed on a glass slide for a microscope, and slight pressure is applied with a glass cover to form a thin layer of amphiphilic lipids (diameter: about 1 to 5 mm) with a thickness of about 10 μm in the gap between the glass slide and the glass cover. Upon addition of water or an aqueous medium from a side of the gap between the glass slide and the glass cover by capillary action, water gradually invades the amphiphilic lipid thin layer from the exterior edge, and a water content gradient is formed from the amphiphilic lipid thin layer/water interface toward the inside of the amphiphilic lipid thin layer. Polarizing microscopic observation thereof enables the determination of a phase type formed depending on the concentration of the amphiphilic lipid/water system. […] In FIG. 2, 4 regions are observed. The rightmost region in the photograph indicates a water region, and the other regions indicate hydrous amphiphilic lipid regions. In the photograph, the rightmost regions indicates the highest water content and the leftmost region indicates a region of amphiphilic lipids that has not yet been penetrated by water. […] Since cubic liquid crystals are stably formed at the interface of excess water and the amphiphilic lipid portion, such crystals are found to be of type II.
To this end, whether or not the liquid crystal structure has cubic lattices may be investigated by the small-angle x-ray scattering (SAXS) assay. In this process, a sample of an amphiphilic lipid/water system at a given concentration may be introduced into a quartz X-ray capillary tube, the capillary may be sealed with an oxygen burner, and the resultant may be subjected to the SAXS assay.
The cubic liquid crystal composition of the present invention is not particularly limited. […] Thus, spaces and lattice constants can be easily determined. The peak values of small angle X-ray scattering or the cubic lattice size of cubic liquid crystals in the presence of an excess aqueous solvent are at constant levels regardless of the lipid concentration. The coexistence state of cubic liquid crystals and an excess aqueous medium can be confirmed by the SAXS assay. Thus, whether or not the cubic liquid crystals are of type II can be easily determined.
In equations, nL and nW are actually measurable, and ac can be measured by the SAXS experiment. Thus, the dhc value can be determined based on equations (ii) and (iii). […] Based on such comparison, whether or not the cubic liquid crystal structure is of a bicontinuous type can be determined.
Mono-O-(3,7,11,15-tetramethylhexadecyl)pentaerythritol (hereafter referred to as “mono-O-(phytanyl)pentaerythritol,” formula (5) above) and pure water were introduced into a mixing device, and incubation was carried out while performing 100 or more times of mixing operations at room temperature (23° C.) over the period of 48 hours. Thus, a homogeneously mixed sample of mono-O-(phytanyl)pentaerythritol/water system was obtained. This sample of mono-O-(phytanyl)pentaerythritol/water system appeared to be a transparent gel composition.
Subsequently, the thus obtained sample of mono-O-(phytanyl)pentaerythritol/water system (the concentration of the amphiphilic compound: 74.6% by mass) was observed by polarizing microscopy. In entire region of the lipid portions, optically isotropic textures peculiar to the cubic liquid crystals were observed (FIG. 3). In FIG. 3, the right region indicates water and the left region indicates the sample of mono-O-(phytanyl)pentaerythritol/water system. […] Such observation indicates the formation of cubic liquid crystals.
Subsequently, the sample of mono-O-(phytanyl)pentaerythritol/water system was confirmed to be a cubic liquid crystal by small-angle x-ray scattering (SAXS). […]

Setting [4] is: lipid alone, total amphiphilic compound content 60% by mass (excess water).

Where only a bound is given, the exact number is not on record here.

For `CC(C)CCCC(C)CCCC(C)CCCC(C)(O)C(O)CO` (stereo not shown) [phytantriol, 3,7,11,15-tetramethylhexadecyl-1,2,3-triol], in data set [1], the “Temperature at which cubic liquid crystals are transformed into inverted hexagonal liquid crystals” value is at least 40 °C.
As to `CC(C)CCCC(C)CCCC(C)CCCC(C)CCOC1OC[C@@H](O)C(O)C1O` (stereo partly shown) [formula (13), reference compound], the “TK (Krafft temperature)” value in data set [2] (listed as β-XP) is “about 10 °C”. In addition, the “maximal temperature at which the cubic liquid crystal structure is formed” value in data set [3] was found to be 75 °C. Further, in data set [3] (setting [4]), the “diameter of the water channel of the cubic liquid crystals” value was found to be 3.8 nm and the “lattice constant of the cubic liquid crystals” value is 9.2 nm. Further, in data set [1], the Krafft temperature is 10 °C.
`CCCCCCCC/C=C\CCCCCCCC(=O)OCC(O)CO` (stereo not shown) [monoolein]: the Krafft temperature in data set [1] is 15 °C.
As to `CCCCCC/C=C\CCCCCCCCCC(=O)OC[C@H](O)CO` [monovaccenin], in data set [1], the Krafft temperature is 15 °C.
For monopentadecenoin, the Krafft temperature in data set [1] was 30 °C.
As to `CCCCCCCCCCCCCCCCCC(=O)OCC(O)CO` (stereo not shown) [monooctadecanoin], in data set [1], the Krafft temperature was 80 °C.
Turning to `CCCC/C=C\CCCCCCCC(=O)OCC(O)CO` (stereo not shown) [monomyristolein], the Krafft temperature in data set [1] was 35 °C.
`CC(C)CCCC(C)CCCC(C)CCCC(C)CCCC(=O)OCC(CO)(CO)CO` (stereo not shown) [formula (9)]: in data set [2], the “Krafft temperature (° C.)” value is 0 °C or lower and the “TK (Krafft temperature)” value is at most 0 °C. Also, in data set [3] (mixed with water, polarizing microscopy and/or SAXS), the “liquid crystal phase formed” value is on record as “bicontinuous type II Pn3m cubic liquid crystals”.
With `CC(C)CCCC(C)CCCC(C)CCCC(C)CC(=O)OCC(CO)(CO)CO` (stereo not shown) [formula (6), mono-O-(3,7,11,15-tetramethylhexadecanoyl)pentaerythritol], in data set [2], the “Krafft temperature (° C.)” value is 0 °C or lower and the “TK (Krafft temperature)” value was at most 0 °C. Besides, in data set [3] (25° C.), the lattice constant turned out to be 10.6 nm. The lattice constant in data set [3] (55° C.) is reported as 8.3 nm. For the same molecule, the “Temperature at which formation of cubic liquid crystals was observed (° C.)” value in data set [3] (Table 4, 56.0% by mass, two-phase system of Pn3m cubic and lamellar liquid crystals) was 1 (Two-phase system of Pn3m cubic liquid ° C.
